Data as given in ChEMBL document CHEMBL1121776, “Folate antagonists. 18. Synthesis and antimalarial effects of N6-(arylmethyl)-N6-methyl-2,4,6-pteridinetriamines and related N6,N6-disubstituted 2,4,6-pteridinetriamines” (1981).
Values after ≈ are worked out from the molar mass of the structure shown.

These compounds were tested on Mus musculus (assay: Parenteral antimalarial effect against Plasmodium berghei in mice (Mus musculus) at a dose of 640 subcutaneously mg/kg). Settings: not given.
Assay type: functional
`Nc1nc(N)c2nc(N3CCC(c4ccccc4)CC3)cnc2n1` gave an MST of 0.1 days.
For `Nc1nc(N)c2nc(N3CCc4ccccc4C3)cnc2n1`, the MST was 0.5 days.

These compounds were tested on Mycobacterium tuberculosis (assay: In vitro antibacterial effect against Mycobacterium tuberculosis H37Rv by using gradient plate test). Settings: not given.
Assay type: functional
For `COc1cc(CN(C)c2cnc3nc(N)nc(N)c3n2)cc(OC)c1OC`, the MIC was > 25 µg/mL.
`Nc1nc(N)c2nc(N3CCC(c4ccccc4)CC3)cnc2n1` showed an MIC of 10 µg/mL (≈ 31.1 µM).
`CN(Cc1cccc(C(F)(F)F)c1)c1cnc2nc(N)nc(N)c2n1` gave an MIC of 10 µg/mL (≈ 28.6 µM).

The compounds below were run on Mus musculus (assay: Parenteral antimalarial effect against Plasmodium berghei in mice (Mus musculus) at a dose of 40sc mg/kg; Number of mice (Mus musculus) surviving at 60 days post infection and cured 6/10). Settings: not given.
Assay type: functional
`COc1cc(CN(C)c2cnc3nc(N)nc(N)c3n2)cc(OC)c1OC` gave an MST of 6 days.

The compounds below were run on Shigella sonnei (assay: In vitro antibacterial effect against Shigella sonnei C-10 by using gradient plate test). Settings: not given.
Assay type: functional
In the case of `COc1cc(CN(C)c2cnc3nc(N)nc(N)c3n2)cc(OC)c1OC`, the MIC is reported as > 25 µg/mL.
In the case of `Nc1nc(N)c2nc(N3CCC(c4ccccc4)CC3)cnc2n1`, the MIC is reported as > 25 µg/mL.
`CN(Cc1cccc(C(F)(F)F)c1)c1cnc2nc(N)nc(N)c2n1` was tested, and the MIC was > 25 µg/mL.

These compounds were tested on Mus musculus (assay: Parenteral antimalarial effect against Plasmodium berghei in mice (Mus musculus) at a dose of 40sc mg/kg; Number of mice (Mus musculus) surviving at 60 days post infection and cured 3/5). Settings: not given.
Assay type: functional
`CN(Cc1ccc(Cl)cc1)c1cnc2nc(N)nc(N)c2n1` gave an MST of 3 days.

The compounds below were run on Mus musculus (assay: Parenteral antimalarial effect against Plasmodium berghei in mice (Mus musculus) at a dose of 160 mg/kg subcutaneously; Number of mice (Mus musculus) surviving at 60 days post infection and cured 5/5). Settings: route subcutaneous.
Assay type: functional
In the case of `CN(Cc1ccc(Cl)cc1)c1cnc2nc(N)nc(N)c2n1`, the MST is reported as 5 days.
`CN(Cc1cccc(C(F)(F)F)c1)c1cnc2nc(N)nc(N)c2n1` was tested, and the MST was 5 days.

These compounds were tested on Mus musculus (assay: Parenteral antimalarial effect against Plasmodium berghei in mice (Mus musculus) at a dose of 160 subcutaneously mg/kg). Settings: not given.
Assay type: functional
For `Nc1nc(N)c2nc(N3CCC(c4ccccc4)CC3)cnc2n1`, the MST was 0.1 days.
Compound `Nc1nc(N)c2nc(N3CCc4ccccc4C3)cnc2n1` has an MST of 0.3 days.

What follows are compounds tested on Escherichia coli (assay: In vitro antibacterial effect against Escherichia coli Vogel by using gradient plate test). Settings: not given.
Assay type: functional
With `COc1cc(CN(C)c2cnc3nc(N)nc(N)c3n2)cc(OC)c1OC` the MIC was > 25 µg/mL.
With `Nc1nc(N)c2nc(N3CCC(c4ccccc4)CC3)cnc2n1` the MIC was > 25 µg/mL.
In the case of `CN(Cc1cccc(C(F)(F)F)c1)c1cnc2nc(N)nc(N)c2n1`, the MIC is reported as > 25 µg/mL.

What follows are compounds tested on Mus musculus (assay: Parenteral antimalarial effect against Plasmodium berghei in mice (Mus musculus) at a dose of 10sc mg/kg). Settings: not given.
Assay type: functional
Work on `CN(Cc1ccc(Cl)cc1)c1cnc2nc(N)nc(N)c2n1` yielded an MST of 4.3 days.
`CN(Cc1cccc(C(F)(F)F)c1)c1cnc2nc(N)nc(N)c2n1` was tested, and the MST was 8.8 days.
For `CN(Cc1ccc(Cl)c(Cl)c1)c1ccc2nc(N)nc(N)c2c1`, the MST was 8.7 days.

What follows are compounds tested on Mus musculus (assay: Parenteral antimalarial effect against Plasmodium berghei in mice (Mus musculus) at a dose of 20 mg/kg subcutaneously; Number of mice (Mus musculus) surviving at 60 days post infection and cured 8/15). Settings: route subcutaneous.
Assay type: functional
For `CN(Cc1ccc(Cl)c(Cl)c1)c1ccc2nc(N)nc(N)c2c1`, the MST was 8 days.

These compounds were tested on Pseudomonas aeruginosa (assay: In vitro antibacterial effect against Pseudomonas aeruginosa 28 by using gradient plate test). Settings: not given.
Assay type: functional
For `COc1cc(CN(C)c2cnc3nc(N)nc(N)c3n2)cc(OC)c1OC`, the MIC was > 25 µg/mL.
`Nc1nc(N)c2nc(N3CCC(c4ccccc4)CC3)cnc2n1` was tested, and the MIC was > 25 µg/mL.
For `CN(Cc1cccc(C(F)(F)F)c1)c1cnc2nc(N)nc(N)c2n1`, the MIC was > 25 µg/mL.

Each compound was assayed on Mus musculus (assay: Parenteral antimalarial effect against Plasmodium berghei in mice (Mus musculus) at a dose of 80 subcutaneously mg/kg; Number of mice (Mus musculus) surviving at 60 days post infection and cured 7/10). Settings: not given.
Assay type: functional
Work on `CN(Cc1ccc(Cl)cc1)c1cnc2nc(N)nc(N)c2n1` yielded an MST of 7 days.

The compounds below were run on Mus musculus (assay: Parenteral antimalarial effect against Plasmodium berghei in mice (Mus musculus) at a dose of 40 mg/kg subcutaneously). Settings: route subcutaneous.
Assay type: functional
`Nc1nc(N)c2nc(N3CCC(c4ccccc4)CC3)cnc2n1` gave an MST of 0.1 days.
For `CN(Cc1cccc(C(F)(F)F)c1)c1cnc2nc(N)nc(N)c2n1`, the MST was 15.4 days.
With `Nc1nc(N)c2nc(N3CCc4ccccc4C3)cnc2n1` the MST was 0.1 days.

These compounds were tested on Mus musculus (assay: Parenteral antimalarial effect against Plasmodium berghei in mice (Mus musculus) at a dose of 80 mg/kg subcutaneously; Number of mice (Mus musculus) surviving at 60 days post infection and cured 10/10). Settings: route subcutaneous.
Assay type: functional
`CN(Cc1ccc(Cl)c(Cl)c1)c1ccc2nc(N)nc(N)c2c1` showed an MST of 10 days.

The compounds below were run on Mus musculus (assay: Parenteral antimalarial effect against Plasmodium berghei in mice (Mus musculus) at a dose of 640 mg/kg subcutaneously; Number of mice (Mus musculus) surviving at 60 days post infection and cured 10/10). Settings: route subcutaneous.
Assay type: functional
`COc1cc(CN(C)c2cnc3nc(N)nc(N)c3n2)cc(OC)c1OC` was tested, and the MST was 10 days.

Each compound was assayed on Staphylococcus aureus (assay: In vitro antibacterial effect against Staphylococcus aureus S18713 by using gradient plate test). Settings: not given.
Assay type: functional
With `COc1cc(CN(C)c2cnc3nc(N)nc(N)c3n2)cc(OC)c1OC` the MIC was < 0.25 µg/mL.
`Nc1nc(N)c2nc(N3CCC(c4ccccc4)CC3)cnc2n1` was tested, and the MIC was > 0.25 µg/mL.
For `CN(Cc1cccc(C(F)(F)F)c1)c1cnc2nc(N)nc(N)c2n1`, the MIC was < 0.25 µg/mL.

The compounds below were run on Staphylococcus aureus (assay: In vitro antibacterial effect against Staphylococcus aureus UC-76 by using gradient plate test). Settings: not given.
Assay type: functional
With `COc1cc(CN(C)c2cnc3nc(N)nc(N)c3n2)cc(OC)c1OC` the MIC was < 0.25 µg/mL.
For `Nc1nc(N)c2nc(N3CCC(c4ccccc4)CC3)cnc2n1`, the MIC was > 0.25 µg/mL.
For `CN(Cc1cccc(C(F)(F)F)c1)c1cnc2nc(N)nc(N)c2n1`, the MIC was < 0.25 µg/mL.

What follows are compounds tested on Mus musculus (assay: Parenteral antimalarial effect against Plasmodium berghei in mice (Mus musculus) at a dose of 160 mg/kg subcutaneously; Number of mice (Mus musculus) surviving at 60 days post infection and cured 8/10). Settings: route subcutaneous.
Assay type: functional
In the case of `COc1cc(CN(C)c2cnc3nc(N)nc(N)c3n2)cc(OC)c1OC`, the MST is reported as 8 days.

These compounds were tested on Mus musculus (assay: Parenteral antimalarial effect against Plasmodium berghei in mice (Mus musculus) at a dose of 20sc mg/kg). Settings: not given.
Assay type: functional
With `COc1cc(CN(C)c2cnc3nc(N)nc(N)c3n2)cc(OC)c1OC` the MST was 5.5 days.
`CN(Cc1cccc(C(F)(F)F)c1)c1cnc2nc(N)nc(N)c2n1` showed an MST of 12.2 days.

What follows are compounds tested on Mus musculus (assay: Parenteral antimalarial effect against Plasmodium berghei in mice (Mus musculus) at a dose of 20 mg/kg subcutaneously; Number of mice (Mus musculus) surviving at 60 days post infection and cured 4/10). Settings: route subcutaneous.
Assay type: functional
`CN(Cc1ccc(Cl)cc1)c1cnc2nc(N)nc(N)c2n1` gave an MST of 4 days.

What follows are compounds tested on Mus musculus (assay: Parenteral antimalarial effect against Plasmodium berghei in mice (Mus musculus) at a dose of 160 mg/kg subcutaneously; Number of mice (Mus musculus) surviving at 60 days post infection and cured 10/10). Settings: route subcutaneous.
Assay type: functional
For `CN(Cc1ccc(Cl)c(Cl)c1)c1ccc2nc(N)nc(N)c2c1`, the MST was 10 days.

What follows are compounds tested on Enterococcus faecalis (assay: In vitro antibacterial effect against Streptococcus faecalis MGH-2). Settings: not given.
Assay type: functional
In the case of `COc1cc(CN(C)c2cnc3nc(N)nc(N)c3n2)cc(OC)c1OC`, the MIC is reported as < 0.25 µg/mL.
With `Nc1nc(N)c2nc(N3CCC(c4ccccc4)CC3)cnc2n1` the MIC was < 0.25 µg/mL.
In the case of `CN(Cc1cccc(C(F)(F)F)c1)c1cnc2nc(N)nc(N)c2n1`, the MIC is reported as < 0.25 µg/mL.
